Laboratory results as given in publication PMC5686178, “Antimicrobial peptides in frog poisons constitute a molecular toxin delivery system against predators” (Nature Communications, 2017).
Where a SMILES comes first, the peptide text is derived from it. Where no end group is shown, it is not given here. [ ]: non-standard residue; d: D form. sY = N[C@@H](Cc1ccc(OS(=O)(=O)O)cc1)C(=O)O; pGlu = O=C1CC[C@@H](C(=O)O)N1

Legend:
Caco-2 monolayers [1] = assay: Transepithelial toxin passage across Caco-2 monolayers (ELISA); conditions: 60 min
EpiOral 3D tissues = assay: Transepithelial toxin passage across EpiOral multilayered oral epithelial model (ELISA); type: in vitro ADME; conditions: 8-11 stacked cell layers, 60 min, n = 8, vs caerulein alone
Caco-2 monolayers [2] = assay: Scanning electron microscopy of Caco-2 monolayers; type: cell-based, Human; conditions: fixation 5 min after administration
Protocol: Caco-2 cells were seeded on glass coverslips that were coated with rat tail collagen 1 (Sigma-Aldrich) the day before. The effect of four treatments (100 µM CPF, 100 µM caerulein, 100 µM CPF + caerulein, and a negative control) on differentiated Caco-2 monolayers was visualized. Chemical fixation was performed in 12-well culture plates 5 min after peptide administration (700 µl of solution in all treatments). For fixation, plate wells were filled with 1 ml 2,5% glutaraldehyde in 0.05 M sodium cacodylate buffer (pH 7.4; 37 °C) for 20 min, and subsequently washed twice with the same buffer. Postfixation was performed with 1% osmium tetroxide for 30 min, followed by three rinses with double-distilled water. Dehydration was carried out using a graded hexylene glycol series: 30; 50; 70; and 90%, taking 15 min for each step. Cells were rinsed three times for 10 min with 100% hexylene glycol, and then two more times for 10 min with 100% ethanol. Critical-point drying of coverslips was done using a Balzers union CPD020. Dried coverslips were mounted on carbon-coated stubs with double-sided conductive tape. Gold coating happened with a Jeol 1200JFC fine coater, after which coverslips were examined with a Jeol JSM-840 scanning electron microscope operating at 12 kV.

[3] = ref [8],[23]; cited from earlier work
Source text: As the main model for our study, we used a peptide pair composed of the systemic toxin caerulein, and the AMP caerulein precursor fragment-3 (CPF), both of which are key constituents of the skin secretion of the frog Xenopus laevis [18]–[20] (Fig. 1b). Caerulein is a potent ligand of cholecystokinin receptors expressed in the vertebrate intestine, pancreas, and brain[9], and at sufficiently high concentrations, may induce nausea, hypotension, intestinal cramps, vomiting, and diarrhea[9],[21],[22]. Even in the intestine, the target receptors are only accessible by means of epithelial absorption ...

other vertebrates = conditions: intravenous, ref [9],[21],[22], cited from earlier work
[4] = Caco-2 monolayer, apical to basolateral, 20 nmol caerulein + 20 nmol CPF (100 µM both) apical, ELISA, n = 9

In the case of “GIGASILSAGKSALKGLAKGLAEHFAN-NH2 [BLP, bombinin-like peptide 1]”, the “Enhancement of transepithelial passage of bombesin by co-administered BLP” value (Caco-2 monolayers [1]; Caco-2 monolayer, 100 µM both apical, ELISA, n = 9, vs toxin alone) is reported as ~ 4.5 times.
With “GFGSFLGKALKAALKIGANALGGSPQQ [CPF, caerulein precursor fragment-3]” the “Increase in caerulein passage by co-administered CPF, oral multilayer model” value (EpiOral 3D tissues) was “nearly fivefold increase”, the “Increase in rate of transepithelial passage of caerulein by co-administered CPF” value (Caco-2 monolayers [1]; Caco-2 monolayer, 100 µM both, on average, vs caerulein alone) was “near sevenfold increase” and the “Damage to Caco-2 monolayers by SEM, CPF present” value (Caco-2 monolayers [2]; 100 µM CPF + caerulein) was “abundant intercellular ruptures in the monolayer”.
In the case of `CSCC[C@H](NC(=O)[C@H](Cc1c[nH]c2ccccc12)NC(=O)CNC(=O)[C@@H](NC(=O)[C@H](Cc1ccc(OS(=O)(=O)O)cc1)NC(=O)[C@H](CC(=O)O)NC(=O)[C@H](CCC(N)=O)NC(=O)[C@@H]1CCC(=O)N1)[C@@H](C)O)C(=O)N[C@@H](CC(=O)O)C(=O)N[C@@H](Cc1ccccc1)C(N)=O` [caerulein] ([pGlu]QD[sY]TGWMDF-NH2), the “Half-life in the bloodstream” value [3] is listed as “up to 45 min”, the “Transepithelial passage of caerulein, % of applied dose at basolateral side” value (Caco-2 monolayers [1]; Caco-2 monolayer on collagen-coated transwell 0.4 µm, apical to basolateral, caerulein alone 100 µM (20 nmol) apical, apical 200 µL / basolateral 1000 µL, ELISA, n = 9) is listed as 0.3 – 1% and the “Transepithelial passage of caerulein, % of applied dose at basolateral side, CPF co-administered” value (Caco-2 monolayers [1]; [4]) is listed as 2.3–6.8%. For the same molecule, the “Transepithelial passage of caerulein, amount at basolateral side, CPF co-administered” value (Caco-2 monolayers [1]; [4]) was 0.45 to 1.36 nmol, the “Transepithelial passage of caerulein, amount at basolateral side” value (Caco-2 monolayers [1]; Caco-2 monolayer, apical to basolateral, caerulein alone 100 µM (20 nmol) apical, ELISA, n = 9) was 0.06 to 0.20 nmol and the “Intravenously injected dose that caused severe sickness, molar” value (other vertebrates; converted from 1 μg/kg BW) was 0.74 pmol/g BW. The “Intravenously injected dose that caused severe sickness” value (other vertebrates) was 1 μg/kg BW and the “Damage to Caco-2 monolayers by SEM, toxin alone” value (Caco-2 monolayers [2]; 100 µM caerulein) was “does not damage Caco-2 monolayers”.
